This assay concerns the target T1, Adrenergic β2 (Homo sapiens, UniProt P07550).
T1 construct: Adherent H292 cells were removed from tissue culture flasks; endogenous in cells; host or cells: H292 cells
Nature of the assay: Adrenergic β2 mediated cAMP production in H292 cells. It counts as cell-based. Particulars: for EC50: H292 cells, cAMP by AlphaScreen, 60 minutes at room temperature, rolipram 300 μM, read-out: β2 pEC50 (converted); for β2 Int Act: Intrinsic Activity as a fraction relative to the maximum activity determined for formoterol. The essentials: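 H292 cells pretreated 10 min with rolipram (300 μM final), then exposed to agonist 60 min at room temperature in HEPES-buffered HBSS, 1.6% DMSO final. Lysate cAMP quantified by AlphaScreen against a cAMP standard curve; four-parameter fit gives pEC50 and intrinsic activity relative to formoterol maximum.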
On the technique in general: cAMP levels reflect the balance of adenylyl cyclase and phosphodiesterase activity.

Where a name gives a salt, the structure may show the parent alone.

T1 sequence (P07550 whole entry): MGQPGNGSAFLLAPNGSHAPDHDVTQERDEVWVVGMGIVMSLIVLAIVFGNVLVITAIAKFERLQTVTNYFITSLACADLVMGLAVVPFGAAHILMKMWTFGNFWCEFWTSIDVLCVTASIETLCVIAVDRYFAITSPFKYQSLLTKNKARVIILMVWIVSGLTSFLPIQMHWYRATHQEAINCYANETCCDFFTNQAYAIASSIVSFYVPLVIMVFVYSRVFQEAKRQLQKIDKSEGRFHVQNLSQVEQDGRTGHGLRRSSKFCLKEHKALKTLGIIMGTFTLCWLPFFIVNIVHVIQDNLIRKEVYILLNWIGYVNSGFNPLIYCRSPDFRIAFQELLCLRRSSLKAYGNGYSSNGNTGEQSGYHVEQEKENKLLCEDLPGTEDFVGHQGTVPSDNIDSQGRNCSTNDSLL

Turning to `O=C(CCNCCc1ccc(Cl)cc1)N(CCNCCc1ccc(O)c2[nH]c(=O)sc12)C1CCCC1` [Example 28, N^3-[2-(4-Chlorophenyl)ethyl]-N-cyclopentyl-N-(2-{[2-(4-hydroxy-2-oxo-2,3-dihydro-1,3-benzothiazol-7-yl)ethyl]amino}ethyl)-β-alaninamide bis-trifluoroacetic acid salt], the EC50 is 10 nM and the “β2 Int Act” value amounted to 0.87.

On to `O=C(CCNCCc1ccccc1Cl)N(CCNCCc1ccc(O)c2[nH]c(=O)sc12)C1CCCC1` [Example 29, N^3-[2-(2-Chlorophenyl)ethyl]-N-cyclopentyl-N-(2-{[2-(4-hydroxy-2-oxo-2,3-dihydro-1,3-benzothiazol-7-yl)ethyl]amino}ethyl)-β-alaninamide bis-trifluoroacetic acid salt], for which the EC50 was 3.98 nM and the “β2 Int Act” value stood at 0.97.

Turning to `O=C(CCNCCc1cccc(Cl)c1)N(CCNCCc1ccc(O)c2[nH]c(=O)sc12)C1CCCC1` [Example 30, N^3-[2-(3-Chlorophenyl)ethyl]-N-cyclopentyl-N-(2-{[2-(4-hydroxy-2-oxo-2,3-dihydro-1,3-benzothiazol-7-yl)ethyl]amino}ethyl)-β-alaninamide bis-trifluoroacetic acid salt], the EC50 was 5.01 nM and the “β2 Int Act” value came out at 0.96.

Take `C[C@H](CNCCC(=O)N(CCNCCc1ccc(O)c2[nH]c(=O)sc12)C1CCCC1)c1ccccc1` [Example 31, N-cyclopentyl-N-(2-{[2-(4-hydroxy-2-oxo-2,3-dihydro-1,3-benzothiazol-7-yl)ethyl]amino}ethyl)-N^3-[(2S)-2-phenylpropyl]-β-alaninamide bis-trifluoroacetic acid salt]: the EC50 is 10 nM and the “β2 Int Act” value turned out to be 0.92.

For `CC(C)(CNCCC(=O)N(CCNCCc1ccc(O)c2[nH]c(=O)sc12)C1CCCC1)c1ccccc1` [Example 32, N-cyclopentyl-N-(2-{[2-(4-hydroxy-2-oxo-2,3-dihydro-1,3-benzothiazol-7-yl)ethyl]amino}ethyl)-N^3-(2-methyl-2-phenylpropyl)-β-alaninamide bis-trifluoroacetic acid salt], the EC50 is 79.4 nM and the “β2 Int Act” value was found to be 0.67.

In the case of `O=C(CCNCCc1ccc(O)cc1)N(CCNCCc1ccc(O)c2[nH]c(=O)sc12)C1CCCCC1` [Example 34, N-Cyclohexyl-N-(2-{[2-(4-hydroxy-2-oxo-2,3-dihydro-1,3-benzothiazol-7-yl)ethyl]amino}ethyl)-N^3-[2-(4-hydroxyphenyl)ethyl]-β-alaninamide bis-trifluoroacetic acid salt], the EC50 is 2 nM and the “β2 Int Act” value was 0.75.

As for `O=C(CCNCCc1cccs1)N(CCNCCc1ccc(O)c2[nH]c(=O)sc12)C1CCCCC1` [Example 35, N-Cyclohexyl-N-(2-{[2-(4-hydroxy-2-oxo-2,3-dihydro-1,3-benzothiazol-7-yl)ethyl]amino}ethyl)-N^3-[2-(2-thienyl)ethyl]-β-alaninamide bis-trifluoroacetic acid salt], the EC50 was 3.98 nM and the “β2 Int Act” value was 0.91.

Consider `O=C(CCNCCc1cccc(F)c1)N(CCNCCc1ccc(O)c2[nH]c(=O)sc12)C1CCCCCC1` [Example 36, N-Cycloheptyl-N^3-[2-(3-fluorophenyl)ethyl]-N-(2-{[2-(4-hydroxy-2-oxo-2,3-dihydro-1,3-benzothiazol-7-yl)ethyl]amino}ethyl)-β-alaninamide bis-trifluoroacetic acid salt], for which the EC50 is 2.51 nM and the “β2 Int Act” value is listed as 0.84.

For the molecule `O=C(CCNCCc1cccc(O)c1)N(CCNCCc1ccc(O)c2[nH]c(=O)sc12)C1CCCCCC1` [Example 37, N-Cycloheptyl-N-(2-{[2-(4-hydroxy-2-oxo-2,3-dihydro-1,3-benzothiazol-7-yl)ethyl]amino}ethyl)-N^3-[2-(3-hydroxyphenyl)ethyl]-β-alaninamide bis-trifluoroacetic acid salt], the EC50 is 1 nM and the “β2 Int Act” value is reported as 0.91.

With `CC(C)(C)CN(CCNCCc1ccc(O)c2[nH]c(=O)sc12)C(=O)CCNC(C)(C)Cc1ccccc1` [Example 38, N^3-(1,1-Dimethyl-2-phenylethyl)-N-(2,2-dimethylpropyl)-N-(2-{[2-(4-hydroxy-2-oxo-2,3-dihydro-1,3-benzothiazol-7-yl)ethyl]amino}ethyl)-β-alaninamide bis-trifluoroacetic acid salt], the EC50 was 63.1 nM and the “β2 Int Act” value was 0.42.

As to `O=C(CCNCCc1ccccc1)N(CCNCCc1ccc(O)c2[nH]c(=O)sc12)C1Cc2ccccc2C1` [Example 41, N^1-(2,3-Dihydro-1H-inden-2-yl)-N^1-(2-{[2-(4-hydroxy-2-oxo-2,3-dihydro-1,3-benzothiazol-7-yl)ethyl]amino}ethyl)-N^3-(2-phenylethyl)-β-alaninamide bis-trifluoroacetic acid salt], the EC50 is 31.6 nM and the “β2 Int Act” value was 0.99.

Take `O=C(CCNCCc1cccc(Cl)c1)N(CCNCCc1ccc(O)c2[nH]c(=O)sc12)C1Cc2ccccc2C1` [Example 42, N^3-[2-(3-Chlorophenyl)ethyl]-N^1-(2,3-dihydro-1H-inden-2-yl)-N^1-(2-{[2-(4-hydroxy-2-oxo-2,3-dihydro-1,3-benzothiazol-7-yl)ethyl]amino}ethyl)-β-alaninamide bis-trifluoroacetic acid salt]: the EC50 was 15.8 nM and the “β2 Int Act” value is 0.82.

Regarding `COc1cccc(CCNCCC(=O)N(CCNCCc2ccc(O)c3[nH]c(=O)sc23)CC(C)(C)C)c1` [Example 43, N^1-(2,2-Dimethylpropyl)-N^1-(2-{[2-(4-hydroxy-2-oxo-2,3-dihydro-1,3-benzothiazol-7-yl)ethyl]amino}ethyl)-N^3-[2-(3-methoxyphenyl)ethyl]-β-alaninamide bis-trifluoroacetic acid salt], the EC50 is 10 nM and the “β2 Int Act” value amounted to 0.67.

With `CC(C)(C)CN(CCNCCc1ccc(O)c2[nH]c(=O)sc12)C(=O)CCNCCc1cccc(F)c1` [Example 44, N^1-(2,2-Dimethylpropyl)-N^3-[2-(3-fluorophenyl)ethyl]-N^1-(2-{[2-(4-hydroxy-2-oxo-2,3-dihydro-1,3-benzothiazol-7-yl)ethyl]amino}ethyl)-β-alaninamide bis-trifluoroacetic acid salt], the EC50 is 6.31 nM and the “β2 Int Act” value is listed as 0.73.

Consider `CC(C)(CN(CCNCCc1ccc(O)c2[nH]c(=O)sc12)C(=O)CCNCCc1ccccc1)c1ccccc1` [Example 45, N^1-(2-{[2-(4-Hydroxy-2-oxo-2,3-dihydro-1,3-benzothiazol-7-yl)ethyl]amino}ethyl)-N^1-(2-methyl-2-phenylpropyl)-N^3-(2-phenylethyl)-β-alaninamide bis-trifluoroacetic acid salt], for which the EC50 was 25.1 nM and the “β2 Int Act” value is reported as 0.55.

Take `O=C(CCNCCc1ccccc1Cl)N(CCNCCc1ccc(O)c2[nH]c(=O)sc12)C1CCC(F)(F)CC1` [Example 46, N^3-[2-(2-Chlorophenyl)ethyl]-N^1-(4,4-difluorocyclohexyl)-N^1-(2-{[2-(4-hydroxy-2-oxo-2,3-dihydro-1,3-benzothiazol-7-yl)ethyl]amino}ethyl)-β-alaninamide bis-trifluoroacetic acid salt]: the EC50 was 3.16 nM and the “β2 Int Act” value was 0.78.

As for `O=C(CCNCCc1cccc(Cl)c1)N(CCNCCc1ccc(O)c2[nH]c(=O)sc12)C1CCC(F)(F)CC1` [Example 47, N^3-[2-(3-Chlorophenyl)ethyl]-N^1-(4,4-difluorocyclohexyl)-N^1-(2-{[2-(4-hydroxy-2-oxo-2,3-dihydro-1,3-benzothiazol-7-yl)ethyl]amino}ethyl)-β-alaninamide bis-trifluoroacetic acid salt], the EC50 was 3.16 nM and the “β2 Int Act” value is given as 0.73.

As to `O=C(CCNCCc1ccc(Cl)cc1)N(CCNCCc1ccc(O)c2[nH]c(=O)sc12)C1CCC(F)(F)CC1` [Example 48, N^3-[2-(4-Chlorophenyl)ethyl]-N^1-(4,4-difluorocyclohexyl)-N^1-(2-{[2-(4-hydroxy-2-oxo-2,3-dihydro-1,3-benzothiazol-7-yl)ethyl]amino}ethyl)-β-alaninamide bis-trifluoroacetic acid salt], the EC50 is 10 nM and the “β2 Int Act” value was 0.55.

`O=C(CCNCCc1cccc(Cl)c1)N(CCNCCc1ccc(O)c2[nH]c(=O)sc12)C1CCCCCC1` [Example 50, N^3-[2-(3-Chlorophenyl)ethyl]-N^1-cycloheptyl-N^1-(2-{[2-(4-hydroxy-2-oxo-2,3-dihydro-1,3-benzothiazol-7-yl)ethyl]amino}ethyl)-β-alaninamide bis-trifluoroacetic acid salt]: the EC50 is 1.26 nM and the “β2 Int Act” value is reported as 0.91.

Regarding `O=C(CCNCCc1ccc(Cl)cc1)N(CCNCCc1ccc(O)c2[nH]c(=O)sc12)C1CCCCCC1` [Example 51, N^3-[2-(4-Chlorophenyl)ethyl]-N^1-cycloheptyl-N^1-(2-{[2-(4-hydroxy-2-oxo-2,3-dihydro-1,3-benzothiazol-7-yl)ethyl]amino}ethyl)-β-alaninamide bis-trifluoroacetic acid salt], the EC50 is 5.01 nM and the “β2 Int Act” value worked out at 0.59.

Turning to `O=C(CCNCCc1cccs1)N(CCNCCc1ccc(O)c2[nH]c(=O)sc12)C1CCCCCC1` [Example 52, N^1-Cycloheptyl-N^1-(2-{[2-(4-hydroxy-2-oxo-2,3-dihydro-1,3-benzothiazol-7-yl)ethyl]amino}ethyl)-N^3-[2-(2-thienyl)ethyl]-β-alaninamide bis-trifluoroacetic acid salt], the EC50 was 3.16 nM and the “β2 Int Act” value is listed as 0.92.

These data come from patent US20100022491A1, “4-HYDROXY-2-OXO-2,3-DIHYDRO-1,3-BENZOTHIAZOL-7YL COMPOUNDS FOR MODULATION OF B2-ADRENORECEPTOR ACTIVITY” (ASTRAZENECA AB, priority 2006, published 2010).
